From publication PMC5951806, “Rapid labelling and covalent inhibition of intracellular native proteins using ligand-directed N-acyl-N-alkyl sulfonamide” (Nature Communications, 2018)

Experiments:
[1] = system: endogenous Hsp90; assay: Chemical labelling of endogenous Hsp90 in SKBR3 cells (in-gel fluorescence); assay type: cell-based, human; details: 3 h
[2] = biological target: Dolichyl-diphosphooligosaccharide--protein glycosyltransferase subunit 1 (RPN1) (Homo sapiens, UniProt P04843); assay: TMT LC-MSMS of 11-labelled proteins; assay type: cell-based
Source text: (§1) Supplement 41467_2018_4343_MOESM4_ESM.xlsx, sheet "Exp3" | column: Abundance Ratio: (11) / (11 with PU-H71); Abundance Ratio: (11) / (DMSO); Abundances (Grouped): 11; Abundances (Grouped): 11 with PU-H71

[3] = biological target: protein MAL2 (MAL2) (Homo sapiens, UniProt Q969L2); assay: TMT LC-MSMS of 11-labelled proteins; assay type: cell-based
Source text: as §1

[4] = biological target: T1, Isoform 3 of Hexokinase-1 (HK1) (Homo sapiens, UniProt P19367); assay: TMT LC-MSMS of 11-labelled proteins; assay type: cell-based
T1 sequence (P19367 1-921 isoform P19367-3): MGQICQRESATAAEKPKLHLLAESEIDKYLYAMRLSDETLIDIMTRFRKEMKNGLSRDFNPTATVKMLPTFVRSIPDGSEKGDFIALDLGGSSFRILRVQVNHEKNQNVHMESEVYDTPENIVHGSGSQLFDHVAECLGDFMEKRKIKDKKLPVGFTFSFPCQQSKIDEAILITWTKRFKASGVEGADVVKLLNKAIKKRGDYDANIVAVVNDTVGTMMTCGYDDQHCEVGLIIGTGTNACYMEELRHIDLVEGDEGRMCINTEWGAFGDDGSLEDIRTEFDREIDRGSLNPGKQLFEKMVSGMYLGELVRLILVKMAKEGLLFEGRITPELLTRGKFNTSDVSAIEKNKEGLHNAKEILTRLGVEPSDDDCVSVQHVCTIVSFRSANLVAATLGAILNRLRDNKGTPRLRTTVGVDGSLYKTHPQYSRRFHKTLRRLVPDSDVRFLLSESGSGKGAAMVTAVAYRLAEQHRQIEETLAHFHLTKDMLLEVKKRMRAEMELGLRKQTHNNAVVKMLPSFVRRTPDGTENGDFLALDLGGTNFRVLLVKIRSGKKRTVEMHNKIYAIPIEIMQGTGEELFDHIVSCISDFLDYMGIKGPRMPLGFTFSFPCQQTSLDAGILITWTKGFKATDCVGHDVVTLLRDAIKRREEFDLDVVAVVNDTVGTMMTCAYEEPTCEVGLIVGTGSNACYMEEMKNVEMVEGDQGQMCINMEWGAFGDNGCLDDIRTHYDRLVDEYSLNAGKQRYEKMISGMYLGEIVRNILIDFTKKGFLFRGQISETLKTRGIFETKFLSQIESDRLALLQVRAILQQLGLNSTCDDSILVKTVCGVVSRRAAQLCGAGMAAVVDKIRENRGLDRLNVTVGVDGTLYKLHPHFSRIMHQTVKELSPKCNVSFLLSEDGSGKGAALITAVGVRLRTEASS
Source text: as §1

[5] = biological target: T2, Phosphate carrier protein, mitochondrial (SLC25A3) (Homo sapiens, UniProt Q00325); assay: TMT LC-MSMS of 11-labelled proteins; assay type: cell-based
T2 sequence (Q00325 50-362): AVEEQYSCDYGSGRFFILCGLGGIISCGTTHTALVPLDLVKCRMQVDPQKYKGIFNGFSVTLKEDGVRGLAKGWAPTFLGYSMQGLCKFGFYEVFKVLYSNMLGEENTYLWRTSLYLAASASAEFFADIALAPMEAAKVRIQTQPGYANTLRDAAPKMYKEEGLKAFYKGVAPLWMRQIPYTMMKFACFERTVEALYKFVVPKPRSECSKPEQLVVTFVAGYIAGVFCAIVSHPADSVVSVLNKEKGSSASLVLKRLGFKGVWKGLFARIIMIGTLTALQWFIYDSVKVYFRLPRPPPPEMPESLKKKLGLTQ
Source text: as §1

[6] = biological target: T3, Monocarboxylate transporter 4 (SLC16A3) (Homo sapiens, UniProt O15427); assay: TMT LC-MSMS of 11-labelled proteins; assay type: cell-based
T3 sequence (O15427 1-465): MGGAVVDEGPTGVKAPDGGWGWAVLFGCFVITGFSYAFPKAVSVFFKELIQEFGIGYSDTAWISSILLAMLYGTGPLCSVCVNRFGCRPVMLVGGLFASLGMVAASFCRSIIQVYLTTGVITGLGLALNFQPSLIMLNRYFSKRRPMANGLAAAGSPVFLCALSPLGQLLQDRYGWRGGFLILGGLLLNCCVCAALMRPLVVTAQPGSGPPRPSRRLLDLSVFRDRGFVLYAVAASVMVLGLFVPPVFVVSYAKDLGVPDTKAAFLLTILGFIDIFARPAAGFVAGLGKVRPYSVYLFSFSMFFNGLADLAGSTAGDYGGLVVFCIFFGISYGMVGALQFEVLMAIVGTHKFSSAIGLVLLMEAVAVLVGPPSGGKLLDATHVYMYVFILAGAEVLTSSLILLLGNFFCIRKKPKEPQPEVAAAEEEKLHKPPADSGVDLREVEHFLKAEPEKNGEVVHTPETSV
Source text: as §1

[7] = system: immunoglobulin gamma-1 heavy chain; assay: TMT LC-MSMS of 11-labelled proteins; assay type: cell-based, Homo sapiens
Source text: Supplement 41467_2018_4343_MOESM4_ESM.xlsx, sheet "Exp2" | column: Abundance Ratio: (11) / (11 with PU-H71); Abundance Ratio: (11) / (DMSO); Abundances (Grouped): 11; Abundances (Grouped): 11 with PU-H71

Sequence of protein MAL2 (MAL2) (Q969L2 whole entry): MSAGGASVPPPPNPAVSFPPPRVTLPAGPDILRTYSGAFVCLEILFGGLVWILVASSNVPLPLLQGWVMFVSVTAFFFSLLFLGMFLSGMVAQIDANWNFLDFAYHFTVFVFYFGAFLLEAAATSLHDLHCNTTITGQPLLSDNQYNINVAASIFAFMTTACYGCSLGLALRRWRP
Sequence of Dolichyl-diphosphooligosaccharide--protein glycosyltransferase subunit 1 (RPN1) (P04843 24-607): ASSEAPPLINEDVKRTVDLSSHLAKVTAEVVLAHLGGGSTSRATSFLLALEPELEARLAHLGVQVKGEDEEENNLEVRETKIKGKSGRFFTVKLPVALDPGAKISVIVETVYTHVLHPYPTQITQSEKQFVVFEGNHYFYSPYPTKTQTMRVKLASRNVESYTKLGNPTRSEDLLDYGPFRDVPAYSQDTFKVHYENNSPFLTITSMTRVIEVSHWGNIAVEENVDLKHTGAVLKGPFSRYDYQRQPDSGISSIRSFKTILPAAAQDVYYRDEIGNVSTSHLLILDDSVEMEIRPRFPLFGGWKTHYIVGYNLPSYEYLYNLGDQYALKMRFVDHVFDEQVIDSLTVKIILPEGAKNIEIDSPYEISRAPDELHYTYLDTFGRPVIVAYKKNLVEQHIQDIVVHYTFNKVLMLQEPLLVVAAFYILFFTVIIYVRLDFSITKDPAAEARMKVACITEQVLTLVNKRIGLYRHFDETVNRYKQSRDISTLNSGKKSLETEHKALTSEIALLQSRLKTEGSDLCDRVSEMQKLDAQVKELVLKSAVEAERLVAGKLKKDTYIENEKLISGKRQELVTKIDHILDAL
Sequence of Dolichyl-diphosphooligosaccharide--protein glycosyltransferase subunit 1 (RPN1) (P39656 43-456 partner): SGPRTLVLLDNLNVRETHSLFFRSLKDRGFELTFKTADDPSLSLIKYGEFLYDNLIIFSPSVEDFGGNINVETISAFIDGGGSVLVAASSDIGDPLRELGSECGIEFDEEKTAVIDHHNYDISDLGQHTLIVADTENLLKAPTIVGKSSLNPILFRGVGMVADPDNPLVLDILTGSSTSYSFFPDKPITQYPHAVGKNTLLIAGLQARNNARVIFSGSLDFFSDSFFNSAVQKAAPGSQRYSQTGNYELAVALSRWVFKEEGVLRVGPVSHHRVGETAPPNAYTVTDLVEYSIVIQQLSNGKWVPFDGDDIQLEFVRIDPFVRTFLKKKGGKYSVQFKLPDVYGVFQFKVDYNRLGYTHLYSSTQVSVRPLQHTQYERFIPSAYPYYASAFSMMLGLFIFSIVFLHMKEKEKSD
Sequence of Dolichyl-diphosphooligosaccharide--protein glycosyltransferase subunit 1 (RPN1) (P04844 23-631 partner): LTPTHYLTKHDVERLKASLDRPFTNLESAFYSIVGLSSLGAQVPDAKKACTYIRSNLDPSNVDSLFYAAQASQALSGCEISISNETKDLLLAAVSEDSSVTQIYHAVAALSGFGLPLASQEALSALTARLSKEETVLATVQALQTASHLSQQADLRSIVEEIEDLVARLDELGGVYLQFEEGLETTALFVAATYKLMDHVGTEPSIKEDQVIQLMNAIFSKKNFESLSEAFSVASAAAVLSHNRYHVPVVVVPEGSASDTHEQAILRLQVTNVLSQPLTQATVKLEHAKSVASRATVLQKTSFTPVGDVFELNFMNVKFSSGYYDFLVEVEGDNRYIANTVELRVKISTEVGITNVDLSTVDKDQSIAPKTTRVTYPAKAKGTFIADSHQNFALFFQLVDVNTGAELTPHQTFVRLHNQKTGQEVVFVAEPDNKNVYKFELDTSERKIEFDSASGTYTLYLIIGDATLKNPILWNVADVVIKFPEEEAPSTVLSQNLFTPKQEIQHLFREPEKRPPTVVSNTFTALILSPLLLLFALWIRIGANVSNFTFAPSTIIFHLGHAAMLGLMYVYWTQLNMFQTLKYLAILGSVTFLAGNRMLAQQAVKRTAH
Sequence of Dolichyl-diphosphooligosaccharide--protein glycosyltransferase subunit 1 (RPN1) (P61803 whole entry partner): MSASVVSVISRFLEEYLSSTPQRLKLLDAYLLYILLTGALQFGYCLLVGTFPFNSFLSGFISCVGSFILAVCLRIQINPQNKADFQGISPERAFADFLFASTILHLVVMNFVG
Sequence of Dolichyl-diphosphooligosaccharide--protein glycosyltransferase subunit 1 (RPN1) (P61165 whole entry partner): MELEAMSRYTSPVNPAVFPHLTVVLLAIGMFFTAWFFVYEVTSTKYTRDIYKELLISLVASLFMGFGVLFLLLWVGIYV
Sequence of Dolichyl-diphosphooligosaccharide--protein glycosyltransferase subunit 1 (RPN1) (P0C6T2 whole entry partner): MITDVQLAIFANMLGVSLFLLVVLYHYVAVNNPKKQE

Structure (SMILES): CC(=O)Oc1ccc2c(c1)Oc1cc(OC(C)=O)ccc1C21OC(=O)c2cc(C(=O)NCCOCCOCCNC(=O)CCCC(=O)N(CC#N)S(=O)(=O)c3ccc(C(=O)NCCCn4c(Sc5cc6c(cc5I)OCO6)nc5c(N)ncnc54)cc3)ccc21 [compound 11]
- unspecific reaction at high concentrations ([1]; 1–10 µM, 37 °C): No increase in unspecific
- endogenous Hsp90 labelling ([1]; up to ~10 µM): labelled endogenous Hsp90 (both α and β isoforms)
- Abundance Ratio: (11) / (11 with PU-H71) ([2]; Exp3): 0.849
- Abundance Ratio: (11) / (DMSO) ([2]; Exp3): 2.221
- Abundances (Grouped): 11 ([2]; Exp3): 38.2
- Abundances (Grouped): 11 with PU-H71 ([2]; Exp3, with PU-H71): 45
- Abundance Ratio: (11) / (11 with PU-H71) ([3]; Exp3): 0.751
- Abundance Ratio: (11) / (DMSO) ([3]; Exp3): 5.099
- Abundances (Grouped): 11 ([3]; Exp3): 71.9
- Abundances (Grouped): 11 with PU-H71 ([3]; Exp3, with PU-H71): 95.8
- Abundance Ratio: (11) / (11 with PU-H71) ([4]; Exp3): 1.072
- Abundance Ratio: (11) / (DMSO) ([4]; Exp3): 2.893
- Abundances (Grouped): 11 ([4]; Exp3): 29.8
- Abundances (Grouped): 11 with PU-H71 ([4]; Exp3, with PU-H71): 27.8
- Abundance Ratio: (11) / (11 with PU-H71) ([5]; Exp3): 0.732
- Abundance Ratio: (11) / (DMSO) ([5]; Exp3): 2.193
- Abundances (Grouped): 11 ([5]; Exp3): 121.3
- Abundances (Grouped): 11 with PU-H71 ([5]; Exp3, with PU-H71): 165.7
- Abundance Ratio: (11) / (11 with PU-H71) ([6]; Exp3): 0.921
- Abundance Ratio: (11) / (DMSO) ([6]; Exp3): 12.228
- Abundances (Grouped): 11 ([6]; Exp3): 353.4
- Abundances (Grouped): 11 with PU-H71 ([6]; Exp3, with PU-H71): 383.7
- Abundance Ratio: (11) / (11 with PU-H71) ([7]; sheet Exp2): 0.821
- Abundance Ratio: (11) / (DMSO) ([7]; sheet Exp2): 0.807
- Abundances (Grouped): 11 ([7]; sheet Exp2): 7483.9
- Abundances (Grouped): 11 with PU-H71 ([7]; sheet Exp2, with PU-H71): 9110.6
